# According to ChEMBL document CHEMBL4196109, “Chemical Strategies for Half-Life Extension of Biopharmaceuticals: Lipidation and Its Alternatives” (ACS Med Chem Lett, 2018):
# How the values were obtained:
# Albumin = Albumin (Homo sapiens, UniProt P02768); assay: Binding affinity to human albumin; format: ADME; conditions: isolated protein
# Homo sapiens = assay: Half life in sc dosed human; format: ADME, organism-based; conditions: in vivo
# Albumin, sequence (P02768 whole entry): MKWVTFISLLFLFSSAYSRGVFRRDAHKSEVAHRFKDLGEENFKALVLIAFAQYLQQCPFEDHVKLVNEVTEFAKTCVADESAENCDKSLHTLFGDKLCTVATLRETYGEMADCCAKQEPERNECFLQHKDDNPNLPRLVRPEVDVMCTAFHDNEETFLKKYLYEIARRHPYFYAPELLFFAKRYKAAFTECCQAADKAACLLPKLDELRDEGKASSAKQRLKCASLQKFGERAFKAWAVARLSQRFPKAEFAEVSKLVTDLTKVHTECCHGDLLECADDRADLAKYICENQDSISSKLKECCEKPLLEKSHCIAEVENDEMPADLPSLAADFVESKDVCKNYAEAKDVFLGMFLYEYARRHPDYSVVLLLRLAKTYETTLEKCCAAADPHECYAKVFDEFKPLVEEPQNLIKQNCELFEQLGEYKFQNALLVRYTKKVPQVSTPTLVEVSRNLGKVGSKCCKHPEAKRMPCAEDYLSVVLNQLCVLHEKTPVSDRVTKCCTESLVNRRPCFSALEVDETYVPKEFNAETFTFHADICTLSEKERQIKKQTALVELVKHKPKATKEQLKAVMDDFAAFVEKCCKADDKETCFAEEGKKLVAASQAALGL
Activity (Albumin) [%],t1/2 (Homo sapiens) [weeks],Compound
> 99,–,NC(=O)[C@H](CCCCNC(=O)CSC[C@H](N)C(=O)O)NC(=O)COCCOCCNC(=O)CC[C@H](NC(=O)CC[C@H](NC(=O)COCCOCCNC(=O)CCCS(=O)(=O)NC(=O)CCCCCCCCCCCCCCc1nn[nH]n1)C(=O)O)C(=O)O
–,1,SEMAGLUTIDE
